These results are taken from paper PMC7384767 (Journal of natural products, 2020).

For this assay, the system named is M. tuberculosis H37Rv. Briefly: Microplate Alamar Blue assay. The assay is classed as cell-based. The settings on record: result in words. (In general: Alamar Blue is a resazurin reagent that responds to reducing activity.)

On to `C=CC(C)(C)n1cc(C[C@@H]2NC(=O)[C@H](CC(C)C)N(C)C2=O)c2ccccc21` [Compound 9, rufomyazine], for which the anti-TB activity entry is “did not show anti-TB activity”.
